“Also recorded” adds a separate entry of the source.
How the values were obtained:
human pcCMT = molecular target: T1, human pcCMT (Homo sapiens, UniProt O60725); test: Carboxyl methylation of Rho GTPases by COS-1 cell membranes expressing human pcCMT (S-adenosyl-L-[methyl-3H]methionine labeling, SDS-PAGE, fluorography); assay type: biochemical; conditions: COS-1 membranes transfected with HL60 cDNA; read-out: ED50 for block of pcCMT activity toward Rho GTPases
T1 construct: The 3.6-kb full-length HL60 pcCMT cDNA and an 852-bp cDNA fragment comprising the ORF were subcloned into the eukaryotic expression vectors; expressed in transfected cells; host or cells: COS-1 cells (pCDM8 vector, DEAE-dextran transfection); light membranes after nitrogen cavitation
T1 sequence (O60725 whole entry, the tested form may be a part): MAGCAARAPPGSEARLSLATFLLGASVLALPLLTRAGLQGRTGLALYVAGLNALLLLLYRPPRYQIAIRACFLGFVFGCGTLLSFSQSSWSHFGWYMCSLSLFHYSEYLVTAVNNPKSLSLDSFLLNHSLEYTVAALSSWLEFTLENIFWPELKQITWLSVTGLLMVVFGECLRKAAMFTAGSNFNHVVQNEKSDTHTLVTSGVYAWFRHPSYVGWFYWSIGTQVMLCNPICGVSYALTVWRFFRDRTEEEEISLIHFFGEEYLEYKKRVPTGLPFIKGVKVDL
Description: (§1) FIGS. 5A and 5B show the carboxyl methylation of ras-related GTPases by COS-1 cell membranes expressing ectopic human pcCMT. In FIG. 5A, neutrophil cytosol (CS) containing a mixture of Rho family proteins complexed with Rho-GDI (lanes 2, 3, 6, 7, 10, 11) or RhoA-GDI complexes partially purified from CS (lanes 4, 8, 12) were incubated with the methyl donor S-adenosyl-L-[methyl-^3H]methionine and light membranes derived from nitrogen cavitation of human neutrophils (lanes 1-4) or COS-1 cells transiently transfected with either human pcCMT (lanes 5-8) or vector alone (lanes 9-12). In some reactions (lanes 3, 7, 11) a competitive pcCMT inhibitor, AFC, was included. Reaction products were analyzed by SDS-PAGE and fluorography. The position of carboxyl methylated […] is indicated as is the position of protein phosphatase 2a (PP2a) that is methylated on a C-terminal leucine by an enzyme unrelated to pcCMT (Lee et al, 1993). […] Carboxyl methyltransferase activity was quantitated in membranes of COS-1 cells transfected with HL60 pcCMT using prenylcysteine analogs as defined substrates (Philips et al, 1995). […]

[1] = molecular target: T2, endogenous neutrophil pcCMT (Homo sapiens, UniProt O60725); test: Carboxyl methylation of Rho GTPases by human neutrophil membranes; assay type: biochemical; conditions: stated identical to the recombinant enzyme; read-out: ED50 for endogenous neutrophil pcCMT
T2 construct: endogenous in cells; host or cells: human peripheral blood neutrophils, light membranes (nitrogen cavitation, sucrose density centrifugation)
T2 sequence (O60725 whole entry): as the sequence (O60725 whole entry, the tested form may be a part) above
Description: as §1

GFP-Nras = test: Subcellular localization of GFP-Nras in transfected COS-1 cells (epifluorescence microscopy); assay type: cell-based; conditions: 200 μM during the 24-hour transfection
Description: FIGS. 8A-8C show the effect of a pcCMT inhibitor (AFC) on the subcellular localization of Nras. In FIG. 8A, COS-1 cells were transiently transfected with GFP-Nras and observed live at 24 hours by epifluorescence microscopy to reveal both surface membrane (arrowheads) and intense perinuclear (Golgi) fluorescence. The position of the […] is marked (N). […] Bars indicate […].
Expression of Recombinant pcCMT: The 3.6-kb full-length HL60 pcCMT cDNA and an 852-bp cDNA fragment comprising the ORF were subcloned into the eukaryotic expression vectors pCDM8 and pcDNA3.1 (Invitrogen, Carlsbad, Calif.). Myc-tagged pcCMT was made by adding a sequence encoding the 10-amino acid epitope of c-Myc recognized by monoclonal antibody 9E10 to the C terminus of pcCMT using patch PCR and subcloning into pcDNA3.1. pcCMT tagged at the C terminus with GFP was generated by subcloning the pcCMT ORF into the expression vector pGFP-N3 (Clontech). For pcCMT enzymatic assays, COS-1 cells were grown in 10-cm dishes and transfected with pcCMT with DEAE-dextran as described (Aruffo et al, 1987). For fluorescence microscopy, exponentially growing COS-1, CHO, and NIH3T3 cells were plated the day prior to transfection at 50-60% confluence and transfected with 2 μg of DNA using LipofectAMINE (Life Technologies, Inc.), Gaithersburg, Md.) according to the manufacturer's instructions. […]

For `CC(=O)N[C@@H](CSC/C=C(\C)CC/C=C(\C)CCC=C(C)C)C(=O)O` [AFC, N-acetyl-S-trans,trans-farnesyl-L-cysteine], the EC50 (human pcCMT) was 10 µM, the EC50 [1] was 10 µM and the “Effect on membrane localization of GFP-Nras” value (GFP-Nras) was “blocked; also recorded: predominantly cytosolic localization”.

From US6432403B1, “Antibodies to polypeptides having prenylcysteine carboxyl methlytransferase activity or inhibiting activity” (New York University, priority 1997, dated 2002)
